Experiments:
[1] = design: method as in Voogd et al., 1993; details: ref Voogd et al., 1993; cited from earlier work
[2] = tested on: LRP1 ectodomain; experiment: Shedding of LRP1 ectodomain into medium of HTB94 cells (immunoblot); type: cell-based; details: suramin 50–250 µg/ml, 30 hours
[3] = molecular target: T1, TIMP-3 binding to LRP1 (Homo sapiens, UniProt P35625); experiment: TIMP-3 binding to immobilized LRP1 (ELISA); details: TIMP-3 preincubated with suramin 200 µg/ml, 1 hour, 37°C
T1 construct: purchased BioMac, Leipzig, Germany
T1 sequence (P35625 24-211): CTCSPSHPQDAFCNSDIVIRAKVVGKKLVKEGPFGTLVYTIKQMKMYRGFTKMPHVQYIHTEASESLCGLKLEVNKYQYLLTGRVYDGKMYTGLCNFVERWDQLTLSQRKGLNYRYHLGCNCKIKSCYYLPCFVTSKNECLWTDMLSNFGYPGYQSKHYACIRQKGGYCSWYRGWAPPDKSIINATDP
Experimental: LRP1 (5 nM; BioMac, Leipzig, Germany) was coated (overnight, 4°C) onto medium-binding ELISA plates (Greiner Bio-One, Stonehouse, UK) in 20 mM HEPES, 150 mM NaCl, 5 mM CaCl2, and 0.05% Tween 20, pH 7.4. Wells were blocked with 10% bovine serum albumin (BSA) in Tris HCl, NaCl, and CaCl2 (TNC) buffer (50 mM Tris HCl, pH 7.5, 150 mM NaCl, 10 mM CaCl2, and 0.05% Brij 35). Wells were washed in TNC buffer containing 0.1% Tween 20 after this and every subsequent step. FLAG-tagged human TIMP-3 (0.4–50 nM), either alone or preincubated with suramin (200 μg/ml, 1 hour, 37°C), was applied to wells in TNC buffer containing 5% BSA (3 hours, 25°C). Binding was detected with anti-FLAG M2 primary antibody and anti-mouse horseradish peroxidase–conjugated secondary antibody in the same buffer. 3,3′,5,5′-Tetramethylbenzidine (Becton Dickinson) substrate was added, the reaction was stopped when appropriate by adding 2 N H2SO4, and absorbance at 450 nm was measured using a FLUOstar Omega microplate reader. Data (mean ± S.D., n = 3) were analyzed using Prism 7.0b software.

Cc1ccc(C(=O)Nc2ccc(S(=O)(=O)O)c3cc(S(=O)(=O)O)cc(S(=O)(=O)O)c23)cc1NC(=O)c1cccc(NC(=O)Nc2cccc(C(=O)Nc3cc(C(=O)Nc4ccc(S(=O)(=O)O)c5cc(S(=O)(=O)O)cc(S(=O)(=O)O)c45)ccc3C)c2)c1 [suramin]
oral bioavailability [1]: not orally bioavailable
shedding of LRP1 ectodomain into the medium [2]: not affected
TIMP-3 binding to immobilized LRP1 [3]: abolished
